Organism: Rattus norvegicus
Test: DrugMatrix - Regimen: Daily Repeat
Type: toxicity, organism-based, Sprague-Dawley
Set-up: regimen Daily Repeat, gender Male, age 6-8 weeks
Conditions: in vivo, po, route oral GAVAGE, vehicle .5 % CMC; for ABSOLUTE BASOPHIL / ABSOLUTE EOSINOPHIL / ABSOLUTE LYMPHOCYTE / ABSOLUTE MONOCYTE / ABSOLUTE SEGMENTED NEUTROPHIL / BASOPHIL / EOSINOPHIL / ERYTHROCYTE COUNT / HEMATOCRIT / HEMOGLOBIN / LEUKOCYTE COUNT / LYMPHOCYTE / MEAN CORPUSCULAR HEMOGLOBIN / MEAN CORPUSCULAR HEMOGLOBIN CONCENTRATION / MEAN CORPUSCULAR VOLUME / MONOCYTE / NEUTROPHIL / NUCLEATED RED BLOOD CELLS / PLATELET COUNT: tissue Blood; for ALANINE AMINOTRANSFERASE / ALBUMIN / ALKALINE PHOSPHATASE / ASPARTATE AMINOTRANSFERASE / BLOOD UREA NITROGEN / CARBON DIOXIDE / CHLORIDE / CHOLESTEROL / CREATINE PHOSPHOKINASE / CREATININE / GLUCOSE / LACTATE DEHYDROGENASE / LIPASE / PHOSPHORUS / POTASSIUM / SODIUM / TOTAL BILIRUBIN / TOTAL PROTEIN / URIC ACID: tissue Plasma
[1] = 0 mg/kg, 72 h, dose level Control, time 3 day
[2] = 0 mg/kg, 120 h, dose level Control, time 5 day
[3] = 2500 mg/kg, 72 h, dose level High, time 3 day

## CN1CCC[C@@H]1CCO[C@](C)(c1ccccc1)c1ccc(Cl)cc1 [CLEMASTINE]
[1]
  ABSOLUTE BASOPHIL: 0 CELLS/uL
  ABSOLUTE EOSINOPHIL: 0 CELLS/uL
  ABSOLUTE LYMPHOCYTE: 12191.17 CELLS/uL
  ABSOLUTE MONOCYTE: 183.17 CELLS/uL
  ABSOLUTE SEGMENTED NEUTROPHIL: 1192.33 CELLS/uL
  BASOPHIL: 0%
  EOSINOPHIL: 0%
  ERYTHROCYTE COUNT: 5.51 x10E6/uL
  HEMATOCRIT: 35.45%
  HEMOGLOBIN: 13.82 G/DL
  LEUKOCYTE COUNT: 13.57 x10E3/uL
  LYMPHOCYTE: 89.83%
  MEAN CORPUSCULAR HEMOGLOBIN: 25.1 pg
  MEAN CORPUSCULAR HEMOGLOBIN CONCENTRATION: 38.98 G/DL
  MEAN CORPUSCULAR VOLUME: 64.42 fL
  MONOCYTE: 1.33%
  NEUTROPHIL: 8.83%
  NUCLEATED RED BLOOD CELLS: 0 /100WBC
  PLATELET COUNT: 1118.17 x10E3/uL
  ALANINE AMINOTRANSFERASE: 55 u/L
  ALBUMIN: 4.15 G/DL
  ALKALINE PHOSPHATASE: 449.5 u/L
  ASPARTATE AMINOTRANSFERASE: 112.83 u/L
  BLOOD UREA NITROGEN: 17.33 mg/dL
  CARBON DIOXIDE: 29.5 mmol/L
  CHLORIDE: 101 MEQ/L
  CHOLESTEROL: 70 mg/dL
  CREATINE PHOSPHOKINASE: 1325.83 u/L
  CREATININE: 0.18 mg/dL
  GLUCOSE: 171.5 mg/dL
  LACTATE DEHYDROGENASE: 386 u/L
  LIPASE: 10 u/L
  PHOSPHORUS: 11.57 mg/dL
  POTASSIUM: 6.21 MEQ/L
  SODIUM: 141.65 MEQ/L
  TOTAL BILIRUBIN: 0.15 mg/dL
  TOTAL PROTEIN: 5.75 G/DL
  URIC ACID: 1.28 mg/dL
[2]
  ABSOLUTE BASOPHIL: 0 CELLS/uL
  ABSOLUTE EOSINOPHIL: 138.17 CELLS/uL
  ABSOLUTE LYMPHOCYTE: 13283.17 CELLS/uL
  ABSOLUTE MONOCYTE: 303.83 CELLS/uL
  ABSOLUTE SEGMENTED NEUTROPHIL: 1308.17 CELLS/uL
  BASOPHIL: 0%
  EOSINOPHIL: 1%
  ERYTHROCYTE COUNT: 5.32 x10E6/uL
  HEMATOCRIT: 33.8%
  HEMOGLOBIN: 13.63 G/DL
  LEUKOCYTE COUNT: 15.03 x10E3/uL
  LYMPHOCYTE: 88.33%
  MEAN CORPUSCULAR HEMOGLOBIN: 25.68 pg
  MEAN CORPUSCULAR HEMOGLOBIN CONCENTRATION: 40.35 G/DL
  MEAN CORPUSCULAR VOLUME: 63.67 fL
  MONOCYTE: 1.83%
  NEUTROPHIL: 8.83%
  NUCLEATED RED BLOOD CELLS: 0 /100WBC
  PLATELET COUNT: 1097.5 x10E3/uL
  ALANINE AMINOTRANSFERASE: 54.5 u/L
  ALBUMIN: 4.27 G/DL
  ALKALINE PHOSPHATASE: 337 u/L
  ASPARTATE AMINOTRANSFERASE: 94.67 u/L
  BLOOD UREA NITROGEN: 17 mg/dL
  CARBON DIOXIDE: 28.33 mmol/L
  CHLORIDE: 101.5 MEQ/L
  CHOLESTEROL: 71.33 mg/dL
  CREATINE PHOSPHOKINASE: 628.17 u/L
  CREATININE: 0.19 mg/dL
  GLUCOSE: 177.83 mg/dL
  LACTATE DEHYDROGENASE: 500.5 u/L
  LIPASE: 9.5 u/L
  PHOSPHORUS: 12.3 mg/dL
  POTASSIUM: 5.63 MEQ/L
  SODIUM: 143.03 MEQ/L
  TOTAL BILIRUBIN: 0.2 mg/dL
  TOTAL PROTEIN: 6.02 G/DL
  URIC ACID: 1.5 mg/dL
[3]
  ABSOLUTE BASOPHIL: 0 CELLS/uL
  ABSOLUTE EOSINOPHIL: 0 CELLS/uL
  ABSOLUTE LYMPHOCYTE: 7950 CELLS/uL
  ABSOLUTE MONOCYTE: 225 CELLS/uL
  ABSOLUTE SEGMENTED NEUTROPHIL: 1825 CELLS/uL
  BASOPHIL: 0%
  EOSINOPHIL: 0%
  ERYTHROCYTE COUNT: 6.97 x10E6/uL
  HEMATOCRIT: 42.9%
  HEMOGLOBIN: 16.67 G/DL
  LEUKOCYTE COUNT: 10 x10E3/uL
  LYMPHOCYTE: 77%
  MEAN CORPUSCULAR HEMOGLOBIN: 23.97 pg
  MEAN CORPUSCULAR HEMOGLOBIN CONCENTRATION: 38.87 G/DL
  MEAN CORPUSCULAR VOLUME: 61.6 fL
  MONOCYTE: 2.33%
  NEUTROPHIL: 20.67%
  NUCLEATED RED BLOOD CELLS: 0 /100WBC
  PLATELET COUNT: 1501 x10E3/uL
  ALANINE AMINOTRANSFERASE: 133 u/L
  ALBUMIN: 4.1 G/DL
  ALKALINE PHOSPHATASE: 344 u/L
  ASPARTATE AMINOTRANSFERASE: 444 u/L
  BLOOD UREA NITROGEN: 70.67 mg/dL
  CARBON DIOXIDE: 23 mmol/L
  CHLORIDE: 102.5 MEQ/L
  CHOLESTEROL: 44.33 mg/dL
  CREATINE PHOSPHOKINASE: 1897.33 u/L
  CREATININE: 0.69 mg/dL
  GLUCOSE: 201 mg/dL
  LACTATE DEHYDROGENASE: 1757 u/L
  LIPASE: 14.33 u/L
  PHOSPHORUS: 18 mg/dL
  POTASSIUM: 6.26 MEQ/L
  SODIUM: 145.75 MEQ/L
  TOTAL BILIRUBIN: 0.73 mg/dL
  TOTAL PROTEIN: 5.93 G/DL
  URIC ACID: 2.83 mg/dL
